Measurements from publication PMC8721105, “Novel Trypanocidal Inhibitors that Block Glycosome Biogenesis by Targeting PEX3–PEX19 Interaction” (Frontiers in Cell and Developmental Biology, 2021).
Where “and” joins values, the source holds several entries; their conditions need not be identical. Identical values can stand only once. Entries after “also recorded” stand apart in the source; their conditions may differ. Like-named read-outs stand apart in the source and are kept apart here.

B1: GST-TbPEX14: GST-tagged TbPEX14 residues 1-84 (protein)
chain: MSLLLSGVVDDGKSKPEVEHTHSEREKRVSNAVEFLLDSRVRRTPTSSKVHFLKSKGLSAEEICEAFTKVGQPKTLNEIKRILS
modifications: left off: GST, end not stated, kept

Key:
BSF427 cells = assay: Digitonin fractionation of compound-treated BSF cells; conditions: 24 h treatment; 0.025 μg of digitonin/μg of total protein
Experimental: Pellets were resuspended in 420 μl of homogenization buffer and distributed evenly into four tubes each with 100 μl (4 μg protein). […] The mixture was incubated for 2 min at 37°C, vortexed for 10 s, and centrifuged (16,000 g) at 4°C for 15 min. 100 μl from the supernatant (solubilized fractions) was taken for Western blot analysis. Remaining pellet fractions were washed by adding homogenization buffer up to 125 μl and centrifuged again, supernatants were discarded, and pellets were resuspended in 100 μl for Western blotting.

[1] = Cytotoxicity test on HepG2 cells; conditions: human, HepG2 cells, Human cell cytotoxicity (EC50), HepG2, serial dilutions of up to 200 µM
[2] = system: PEX11-GFP–expressing BSF cells; assay: Immunofluorescence of PEX11-GFP–expressing BSF cells; assay type: cell-based, Trypanosoma brucei; conditions: 24 h treatment
Experimental: (§1) BSF strain Lister 427 (termed hereafter as BSF427) and cell line 90-13 (stably expressing Tet repressor) were used in this study. BSF cells were grown in HMI-11 medium and maintained in logarithmic phase [below 2 × 10^6 cells/ml as described in [Kalel et al. (2019)]]. Genomically integrated stable transfections were performed with NotI-linearized plasmid constructs (pGN1-TbPEX11), which integrate into the spacer region of the ribosomal RNA repeat locus in the genome of cell line 90-13, and the clones were selected using blasticidin as described previously ([Kalel et al., 2015]). Expression of TbPEX11-GFP was confirmed with fluorescence microscopy following induction tests (data not shown) with a serial dilution of tetracycline, and minimal concentration (5 ng/ml) of tetracycline was used to achieve expression of the protein in more than 80% of the cells.
BSF 90-13 cells with genomically integrated PEX11-GFP were induced with 5 ng/ml of tetracycline and cultured overnight to initiate stable expression of PEX11-GFP. BSF427- and PEX11-GFP–expressing cells were treated for 24 h with 100 μM, 50 and 25 μM of each of the inhibitor, and DMSO was used as control. Compound-treated cultures with growth rates of about 50% compared to the DMSO control were harvested and stained for immunofluorescence and statistical analysis. […]

GST-TbPEX3d44 = assay: NMR saturation transfer difference (STD) with GST-TbPEX3; assay type: binding, Trypanosoma brucei; conditions: for STD NMR effect with GST-TbPEX3: 10 μM protein, 300 µM ligand; for Target protein (NMR analysis): protein assigned as target, GST-TbPEX3, TbPEX19-His and GST-His tested
Experimental: (§2) NMR saturation transfer difference (STD) experiments ([Mayer and Meyer, 1999]) were carried out on a Bruker AVIII 600-MHz spectrometer equipped with a cryoprobe and a SampleJet auto sampler. One-dimensional (1D) and STD spectra were acquired at 298 K. Compounds were dissolved in DMSO-d6 to a final concentration of 50 mM. STD experiments with GST-TbPEX3, TbPEX19-His, and GST-His were performed in PBS (pH 7.4), 10% D2O at a protein concentration of 10 μM, and a ligand concentration of 300 µM. Saturation time and interscan delay within STD experiments were set to 2 and 2.5 s, respectively.

T. brucei BSF427 = assay: T. brucei cell viability, resazurin-based assay; set-up: species or system Trypanosoma brucei; conditions: BSF427, 3 days of incubation, resazurin, read-out: T. brucei toxicity (EC50)
Experimental: as §1
T. brucei BSF427 and compound dilutions were mixed in 1 : 1 (v/v) ratio to total volume of 200 μl, to reach final concentrations of 2 × 10^3 cells/ml and 0.19–100 μM of inhibitors, in quadruplicates in 96-well plates. Culture medium with no cells was used as negative control and cultures without presence of compounds as positive control representing normal rate of cell growth. Cells were grown at 37°C in an incubator with humidified air containing 5% CO2 for 3 days. Cell viabilities were measured quantitatively using resazurin dye, by adding 25-µl resazurin (0.1 mg/ml in HBSS) to each well, and the mixture incubated for 6 h in the incubator. Fluorescence emission was detected at 570 and 585 nm after excitation at 530 nm, and fluorescence at 570 nm was subtracted from 585 nm. The inhibition curves were fitted with normalized fluorescence signal (in percentage) against concentration of compounds in Log10 scale using GraphPad Prism, and best fit was used for EC50 estimation. Chemical structures were drawn with ChemDraw 20.0.

[3] = target: TbPEX3–TbPEX19 interaction (Trypanosoma brucei brucei, UniProt Q383Q3); assay: AlphaScreen TbPEX3–TbPEX19 inhibitor screening and dose response; assay type: binding
TbPEX3–TbPEX19 interaction, sequence (Q383Q3 entry or part of it, other chains not shown): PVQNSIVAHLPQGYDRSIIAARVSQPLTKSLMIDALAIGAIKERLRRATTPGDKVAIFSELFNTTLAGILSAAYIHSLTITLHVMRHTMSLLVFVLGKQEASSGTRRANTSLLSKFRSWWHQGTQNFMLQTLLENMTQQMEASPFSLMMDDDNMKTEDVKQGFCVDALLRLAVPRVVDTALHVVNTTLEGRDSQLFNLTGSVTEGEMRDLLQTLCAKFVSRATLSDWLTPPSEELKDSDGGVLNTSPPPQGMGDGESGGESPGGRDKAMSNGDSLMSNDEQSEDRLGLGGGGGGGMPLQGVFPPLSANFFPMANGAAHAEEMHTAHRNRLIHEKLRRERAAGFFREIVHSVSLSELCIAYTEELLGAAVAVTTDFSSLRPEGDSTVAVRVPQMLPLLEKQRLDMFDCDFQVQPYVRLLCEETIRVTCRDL
Experimental: The above solutions were prepared in the reaction buffer [0.5% BSA v/v, 0.05% Tween 80 v/v, 0.2 mM DTT, PBS (pH7.4)] on the day of assay, diluting the compounds from 1 mM stocks in DMSO. Compounds were incubated with the proteins for 30 min at room temperature (RT). Five microliters of AlphaScreen Nickel-chelate acceptor beads (cat. no. 6760619C, PerkinElmer®) and AlphaScreen Glutathione donor beads (cat. no. 6765300, PerkinElmer®) were distributed to the mixture consecutively, with a 15-min interval. The complete 25-μl reaction solutions were incubated for 45 min at RT in the dark, and Alpha signals were captured with Cytation 5 plate reader (BioTek®) with the gain value set at 180. Schematic representation of the experiment setup of the high-throughput screening assays was prepared with BioRender.com.
Following initial hit selection, 10 μM of drugs were tested with GST-His (54 nM) and TbPEX19/TbPEX3 (5 nM) in smaller scale, and the level of signal was normalized (in %) and compared.

GST-His = target: T1, GST-His (Schistosoma japonicum, UniProt P08515); assay: NMR saturation transfer difference (STD) with GST-His control; assay type: binding; conditions: 10 μM protein, 300 µM ligand
T1 construct: made in house; host or cells: E. coli BL21(DE3)
T1 sequence (P08515 whole entry): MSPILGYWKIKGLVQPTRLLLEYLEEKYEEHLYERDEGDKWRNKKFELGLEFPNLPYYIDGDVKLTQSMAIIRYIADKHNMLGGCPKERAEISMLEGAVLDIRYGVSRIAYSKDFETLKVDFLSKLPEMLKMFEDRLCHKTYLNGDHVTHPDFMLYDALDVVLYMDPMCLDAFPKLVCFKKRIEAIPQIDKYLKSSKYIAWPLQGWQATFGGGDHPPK
Experimental: as §2

[4] = system: T. brucei bloodstream form parasites; assay: Immunofluorescence microscopy of glycosomal aldolase localization; assay type: cell-based, Trypanosoma brucei; conditions: 24 h treatment; for Mislocalization (% of No. of cells) of aldolase: cultures with 50% of the growth rate of DMSO control
Experimental: BSF 90-13 cells with genomically integrated PEX11-GFP were induced with 5 ng/ml of tetracycline and cultured overnight to initiate stable expression of PEX11-GFP. BSF427- and PEX11-GFP–expressing cells were treated for 24 h with 100 μM, 50 and 25 μM of each of the inhibitor, and DMSO was used as control. Compound-treated cultures with growth rates of about 50% compared to the DMSO control were harvested and stained for immunofluorescence and statistical analysis. Cells were fixed with 4% paraformaldehyde in PBS containing 250 mM sucrose for 20 min. Fixed cells were immobilized on adhesive slide (StarFrost®) pre-coated with 10% (v/v) of poly-L-lysine (Sigma-Aldrich®) in water after 1-h incubation at RT. Cells were permeabilized with 0.1% (v/v) Triton X-100 in PBS (pH7.4) for 15 min and blocked in buffer D [PBS supplemented with 1% (w/v) BSA and 0.25% (v/v) Tween 20] for 1 h. Anti-TbAldolase primary antibody was used at 1:500 dilution in buffer D for 1.5 h incubation. After five washes in PBS for 30 min, samples were treated with Goat anti-rabbit secondary antibody (1:200, v/v, Alexa Fluor™ 594). Samples were washed, dried, and mounted with Mowiol containing 4′,6-diamidino-2-phenylindole (DAPI). Immuno-stained cells were visualized with Zeiss Elyra microscopy. Pictures of stack 3 (of 5), rotation 1 (of 3), and phase 5 (of 5) were chosen for all control and compound-treated samples.

[5] = ref ChemBridge, cited from earlier work; for Hacc (hydrogen bond acceptor) / Hdon (hydrogen bond donor): provided by the compound library supplier; for LogSw: supplier data
HepG2 cells = assay: Cytotoxicity test on HepG2 cells; conditions: read-out: Human cell cytotoxicity (EC50); HepG2, serial dilutions of up to 200 µM
TbPEX19-His = assay: NMR saturation transfer difference (STD) with TbPEX19-His; assay type: binding, Trypanosoma brucei; conditions: 10 μM protein, 300 µM ligand
Experimental: as §2

Biotin-TbPEX5pep = assay: ELISA binding of GST-TbPEX14 and Biotin-TbPEX5pep; set-up: species or system Trypanosoma brucei; conditions: read-out: KD of GST-TbPEX14 (residue1-84) and Biotin-TbPEX5pep
Experimental: ELISA with TbPEX14–TbPEX5 was used as an independent assay to confirm compound specificity by examining the compound activity on TbPEX14–TbPEX5 interaction. TbPEX14–TbPEX5 assays were performed similarly with following changes. GST-TbPEX14_1-84 was coated, and biotinylated TbPEX5 peptide (Biotin-Aca-Aca-[…]) was used as analyte to a final concentration of 500 nM. Bound PEX5 was detected using streptavidin-conjugated alkaline phosphatase [1:2,000 v/v in PBS, 0.05% v/v Tween 20 (pH 7.4), buffer D, Promega] and p-nitrophenylphosphate (PNPP, Thermo Fisher Scientific) as a substrate, reactions stopped with 3 M NaOH and absorbance read at 405 nm.

Row | Molecule | Release of glycosomal matrix proteins (HK, gGAPDH) on digitonin fractionation (in words) (BSF427 cells) | EC50 [1] [µM] | PEX11-GFP and matrix protein localization (in words) [2] | STD NMR effect with GST-TbPEX3 (GST-TbPEX3d44) | Target protein (NMR analysis) (GST-TbPEX3d44) | EC50 (T. brucei BSF427) [µM] | EC50 (T. brucei BSF427; Trypanosoma brucei, 72 h) [µM] | IC50 [3] [µM] | STD NMR effect with GST-His control (GST-His) | Aldolase labeling phenotype (in words) [4] | Mislocalization (% of No. of cells) of aldolase [4] | Hacc (hydrogen bond acceptor) [5] | Hdon (hydrogen bond donor) [5] | LogSw [5] | EC50 (HepG2 cells) [µM] | STD NMR effect with TbPEX19-His (TbPEX19-His) | Kd (Biotin-TbPEX5pep) [µM]
1 | COCC1CCCN(S(=O)(=O)N2CCCN(Cc3cccc(F)c3)CC2)C1 (centres unmarked) [Compound 2, 1-(3-fluorobenzyl)-4-{[3-(methoxymethyl)piperidin-1-yl]sulfonyl}-1,4-diazepane] | mislocalization of the matrix protein into cytosol | > 200 | partly mislocalized to cytosol | significant STD effects; also recorded: strong STD signal | TbPEX3 | 27 | 26.9 | 37.5 | not to GST-His; also recorded: not with TbPEX19 or GST | mislocalization of aldolase to the cytosol | ~21% and 21.2% | 4 | 0 | -1.59 | – | – | –
2 | CCn1c2c(c3cc(C(=O)N4CCc5[nH]cnc5C4c4cccnc4)ccc31)CCCC2=O (centres unmarked) [Compound 3, 9-ethyl-6-[(4-pyridin-3-yl-1,4,6,7-tetrahydro-5H-imidazo[4,5-c]pyridin-5-yl)carbonyl]-2,3,4,9-tetrahydro-1H-carbazol-1-one] | mislocalization of the matrix protein into cytosol | 84.4 | mislocalization of both PEX11 and matrix proteins | strong line-broadening | – | – | 38 | 14.3 | weak line-broadening | partial mislocalization of aldolase to the cytosol | ~27% and 27.5% | 4 | 1 | -1.77 | 84 | notable STD signal | –
3 | Cn1ccnc1CNCCOc1cccc2cccnc12 [Compound 4, N-[(1-methyl-1H-imidazol-2-yl)methyl]-2-(quinolin-8-yloxy)ethanamine] | – | > 200 | – | significant STD effects; also recorded: strong STD signal | TbPEX3 | 71 | 70.7 | 0.5 | not to GST-His; also recorded: not with TbPEX19 or GST | patches of stained aldolase | ~14% and 14.3% and ~15% | 4 | 1 | -1.26 | – | – | –
4 | B1 | – | – | – | – | – | – | – | – | – | – | – | – | – | – | – | – | 0.52 ± 0.13
